{"source": "ChEMBL document CHEMBL3774360", "about": "“Potent multitarget FAAH-COX inhibitors: Design and structure-activity relationship studies” (Eur J Med Chem, 2016)", "key": {"[1]": {"molecular_target": "Type-1 angiotensin II receptor (Homo sapiens) (UniProt P30556)", "assay": "Binding affinity to human angiotensin receptor 1 at 10 uM by radioligand binding assay"}, "[2]": {"molecular_target": "Thromboxane A2 receptor (Homo sapiens) (UniProt P21731)", "sequence (P21731 whole entry)": "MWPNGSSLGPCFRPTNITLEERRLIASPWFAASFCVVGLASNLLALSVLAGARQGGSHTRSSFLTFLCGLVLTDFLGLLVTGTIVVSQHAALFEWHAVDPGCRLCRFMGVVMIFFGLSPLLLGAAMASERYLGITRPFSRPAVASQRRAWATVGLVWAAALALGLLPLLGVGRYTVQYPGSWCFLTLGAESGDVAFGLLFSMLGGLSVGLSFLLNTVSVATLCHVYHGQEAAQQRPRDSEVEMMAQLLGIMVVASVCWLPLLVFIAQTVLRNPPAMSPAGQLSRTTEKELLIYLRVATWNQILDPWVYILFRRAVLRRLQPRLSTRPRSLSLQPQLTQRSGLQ", "assay": "Agonist activity against human TP receptor at 10 uM"}, "[3]": {"molecular_target": "cGMP-inhibited 3',5'-cyclic phosphodiesterase 3A (Homo sapiens) (UniProt Q14432)", "assay": "Binding affinity to human PDE3A at 10 uM"}, "Homo sapiens [4]": {"organism": "Homo sapiens", "assay": "Binding affinity to P2Y receptor (unknown origin) at 10 uM by radioligand binding assay"}, "[5]": {"molecular_target": "Adenylate cyclase (Homo sapiens) (UniProt Q8NFM4+O60503+Q08828+P40145+O60266+O95622+O43306+Q08462+P51828)", "assay": "Activation of adenylyl cyclase (unknown origin) at 10 uM", "type": "protein assay"}, "[6]": {"molecular_target": "Prostaglandin E2 receptor EP1 subtype (Homo sapiens) (UniProt P34995)", "assay": "Binding affinity to human EP1 receptor at 10 uM by radioligand binding assay"}, "Homo sapiens [7]": {"organism": "Homo sapiens", "assay": "Binding affinity to P2X receptor (unknown origin) at 10 uM by radioligand binding assay"}, "[8]": {"molecular_target": "Transient receptor potential cation channel subfamily V member 1 (Homo sapiens) (UniProt Q8NER1)", "assay": "Antagonist activity against human TRPV1 receptor at 10 uM", "set-up": "scale not given: the % may be the effect or the level left"}, "[9]": {"molecular_target": "Endothelin receptor type B (Homo sapiens) (UniProt P24530)", "assay": "Binding affinity to human ETB receptor at 10 uM by radioligand binding assay"}, "[10]": {"molecular_target": "Prostaglandin G/H synthase 1 (Homo sapiens) (UniProt P23219)", "assay": "Binding affinity to human COX1 at 10 uM"}, "[11]": {"molecular_target": "Secretory phospholipase A2 receptor (Homo sapiens) (UniProt Q13018)", "sequence (Q13018 whole entry)": "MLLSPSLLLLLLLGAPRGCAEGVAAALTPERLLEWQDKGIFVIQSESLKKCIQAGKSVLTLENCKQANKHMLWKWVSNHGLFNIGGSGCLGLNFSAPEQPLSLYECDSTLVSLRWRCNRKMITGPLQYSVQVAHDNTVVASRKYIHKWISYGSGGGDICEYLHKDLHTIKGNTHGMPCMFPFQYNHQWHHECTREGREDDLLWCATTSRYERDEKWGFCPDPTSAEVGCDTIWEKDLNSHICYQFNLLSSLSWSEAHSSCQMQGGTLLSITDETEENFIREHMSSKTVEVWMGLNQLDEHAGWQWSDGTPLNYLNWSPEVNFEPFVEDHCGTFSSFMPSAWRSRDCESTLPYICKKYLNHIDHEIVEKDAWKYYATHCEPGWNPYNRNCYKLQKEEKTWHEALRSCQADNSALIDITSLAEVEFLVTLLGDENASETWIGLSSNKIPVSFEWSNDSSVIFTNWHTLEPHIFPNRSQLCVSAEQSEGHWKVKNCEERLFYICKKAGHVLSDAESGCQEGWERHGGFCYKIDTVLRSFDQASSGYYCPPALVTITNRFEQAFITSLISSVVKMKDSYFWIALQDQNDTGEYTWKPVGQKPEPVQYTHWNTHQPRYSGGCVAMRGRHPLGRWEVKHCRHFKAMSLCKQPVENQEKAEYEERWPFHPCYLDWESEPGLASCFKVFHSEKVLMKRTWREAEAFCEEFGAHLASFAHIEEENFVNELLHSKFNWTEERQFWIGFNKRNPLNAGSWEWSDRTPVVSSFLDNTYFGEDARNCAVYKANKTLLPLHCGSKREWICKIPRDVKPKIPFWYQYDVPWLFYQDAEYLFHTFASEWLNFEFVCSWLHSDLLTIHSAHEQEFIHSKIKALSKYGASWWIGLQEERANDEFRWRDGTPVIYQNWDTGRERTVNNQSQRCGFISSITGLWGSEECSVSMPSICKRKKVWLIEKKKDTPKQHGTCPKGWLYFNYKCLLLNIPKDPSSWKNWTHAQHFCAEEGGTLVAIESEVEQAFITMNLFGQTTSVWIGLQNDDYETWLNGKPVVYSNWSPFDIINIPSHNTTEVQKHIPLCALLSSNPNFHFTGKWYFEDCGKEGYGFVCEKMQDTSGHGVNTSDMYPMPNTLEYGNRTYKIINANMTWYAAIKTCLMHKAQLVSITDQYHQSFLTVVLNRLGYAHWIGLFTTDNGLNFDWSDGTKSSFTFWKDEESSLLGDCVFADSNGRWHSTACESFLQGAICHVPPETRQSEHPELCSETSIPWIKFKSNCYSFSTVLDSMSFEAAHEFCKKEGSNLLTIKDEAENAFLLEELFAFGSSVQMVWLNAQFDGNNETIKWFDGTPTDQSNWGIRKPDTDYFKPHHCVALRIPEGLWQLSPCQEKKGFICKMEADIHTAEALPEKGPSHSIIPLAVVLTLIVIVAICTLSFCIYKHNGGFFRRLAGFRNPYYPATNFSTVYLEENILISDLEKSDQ", "assay": "Binding affinity to human sPLA2 at 10 uM"}, "[12]": {"molecular_target": "Proteinase-activated receptor 2 (Homo sapiens) (UniProt P55085)", "assay": "Binding affinity to human PAR2 receptor at 10 uM by radioligand binding assay"}, "Homo sapiens [13]": {"organism": "Homo sapiens", "assay": "Binding affinity to neuropeptide Y receptor (unknown origin) at 10 uM by radioligand binding assay"}, "[14]": {"molecular_target": "Type-2 angiotensin II receptor (Homo sapiens) (UniProt P50052)", "assay": "Binding affinity to human angiotensin receptor 2 at 10 uM by radioligand binding assay"}, "[15]": {"molecular_target": "Tyrosine 3-monooxygenase (Homo sapiens) (UniProt P07101)", "sequence (P07101 whole entry)": "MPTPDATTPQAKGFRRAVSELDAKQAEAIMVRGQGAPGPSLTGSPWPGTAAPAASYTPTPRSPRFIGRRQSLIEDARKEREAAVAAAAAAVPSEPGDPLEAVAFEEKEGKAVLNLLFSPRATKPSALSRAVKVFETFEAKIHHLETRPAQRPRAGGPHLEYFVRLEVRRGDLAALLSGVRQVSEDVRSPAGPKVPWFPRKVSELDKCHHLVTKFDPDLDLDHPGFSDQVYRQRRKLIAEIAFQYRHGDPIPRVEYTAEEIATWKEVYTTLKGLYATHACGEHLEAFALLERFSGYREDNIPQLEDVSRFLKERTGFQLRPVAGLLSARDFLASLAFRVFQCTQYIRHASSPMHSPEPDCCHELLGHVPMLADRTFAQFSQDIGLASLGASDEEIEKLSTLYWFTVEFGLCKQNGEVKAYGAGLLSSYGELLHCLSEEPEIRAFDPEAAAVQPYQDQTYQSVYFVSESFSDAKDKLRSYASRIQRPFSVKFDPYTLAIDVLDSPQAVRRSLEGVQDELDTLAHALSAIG", "assay": "Binding affinity to tyrosine hydroxylase (unknown origin) at 10 uM"}, "[16]": {"molecular_target": "Thromboxane A2 receptor (Homo sapiens) (UniProt P21731)", "assay": "Antagonist activity against human TP receptor at 10 uM", "set-up": "scale not given: the % may be the effect or the level left"}, "[17]": {"molecular_target": "Tyrosine-protein phosphatase non-receptor type 1 (Homo sapiens) (UniProt P18031)", "assay": "Binding affinity to PTPN1 (unknown origin) at 10 uM"}, "[18]": {"molecular_target": "Vasopressin V2 receptor (Homo sapiens) (UniProt P30518)", "sequence (P30518 whole entry)": "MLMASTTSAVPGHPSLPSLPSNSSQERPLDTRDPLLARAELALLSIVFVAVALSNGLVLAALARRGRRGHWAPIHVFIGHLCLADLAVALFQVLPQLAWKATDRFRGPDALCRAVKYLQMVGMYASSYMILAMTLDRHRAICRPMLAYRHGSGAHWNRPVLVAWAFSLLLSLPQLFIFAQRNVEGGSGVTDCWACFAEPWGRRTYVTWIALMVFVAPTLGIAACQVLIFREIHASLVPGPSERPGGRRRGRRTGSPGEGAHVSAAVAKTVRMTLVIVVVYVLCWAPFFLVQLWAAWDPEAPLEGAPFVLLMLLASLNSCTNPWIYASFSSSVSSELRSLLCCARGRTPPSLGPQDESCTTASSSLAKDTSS", "assay": "Binding affinity to human V2 receptor at 10 uM by radioligand binding assay"}, "[19]": {"molecular_target": "Cysteinyl leukotriene receptor 1 (Homo sapiens) (UniProt Q9Y271)", "sequence (Q9Y271 whole entry)": "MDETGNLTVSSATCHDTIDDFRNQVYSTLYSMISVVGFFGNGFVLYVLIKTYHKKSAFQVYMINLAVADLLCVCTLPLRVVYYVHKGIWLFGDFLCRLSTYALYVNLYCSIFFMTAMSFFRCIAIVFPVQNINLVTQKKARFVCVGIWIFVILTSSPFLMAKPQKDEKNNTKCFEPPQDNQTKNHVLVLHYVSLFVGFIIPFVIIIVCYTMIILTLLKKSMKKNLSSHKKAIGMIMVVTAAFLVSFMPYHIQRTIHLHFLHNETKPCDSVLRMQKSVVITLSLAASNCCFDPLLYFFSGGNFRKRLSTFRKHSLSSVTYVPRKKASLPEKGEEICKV", "assay": "Binding affinity to human cysteinyl leukotriene receptor 1 at 10 uM by radioligand binding assay"}, "[20]": {"molecular_target": "cGMP-specific 3',5'-cyclic phosphodiesterase (Homo sapiens) (UniProt O76074)", "assay": "Binding affinity to human PDE5 at 10 uM"}, "[21]": {"molecular_target": "Sodium/potassium-transporting ATPase (Homo sapiens) (UniProt P05023+P14415+P05026+P50993+P54709+P13637+Q13733+P54710)", "assay": "Binding affinity to sodium/potassium-transporting ATPase (unknown origin) at 10 uM", "type": "protein-complex assay"}, "[22]": {"molecular_target": "Beta-2 adrenergic receptor (Homo sapiens) (UniProt P07550)", "assay": "Binding affinity to beta-2 adrenergic receptor (unknown origin) at 10 uM by radioligand binding assay"}, "[23]": {"molecular_target": "Melanocortin receptor 4 (Homo sapiens) (UniProt P32245)", "sequence (P32245 whole entry)": "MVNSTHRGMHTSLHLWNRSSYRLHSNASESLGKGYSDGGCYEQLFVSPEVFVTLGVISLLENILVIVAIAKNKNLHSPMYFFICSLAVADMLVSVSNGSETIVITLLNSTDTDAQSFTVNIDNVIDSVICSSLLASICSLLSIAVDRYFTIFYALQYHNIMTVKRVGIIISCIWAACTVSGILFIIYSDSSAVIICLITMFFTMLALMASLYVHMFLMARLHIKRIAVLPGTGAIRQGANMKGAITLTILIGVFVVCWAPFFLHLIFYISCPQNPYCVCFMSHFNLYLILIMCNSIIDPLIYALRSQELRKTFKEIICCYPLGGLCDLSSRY", "assay": "Binding affinity to human melanocortin-4 receptor at 10 uM by radioligand binding assay"}, "[24]": {"molecular_target": "Adrenergic receptor alpha-1 (Homo sapiens) (UniProt P35348+P25100+P35368)", "assay": "Binding affinity to human alpha-1 adrenergic receptor (unknown origin) at 10 uM by radioligand binding assay"}, "[25]": {"molecular_target": "3',5'-cyclic-AMP phosphodiesterase 4D (Homo sapiens) (UniProt Q08499)", "assay": "Binding affinity to human PDE4D2 at 10 uM"}, "[26]": {"molecular_target": "Endothelin-1 receptor (Homo sapiens) (UniProt P25101)", "sequence (P25101 whole entry)": "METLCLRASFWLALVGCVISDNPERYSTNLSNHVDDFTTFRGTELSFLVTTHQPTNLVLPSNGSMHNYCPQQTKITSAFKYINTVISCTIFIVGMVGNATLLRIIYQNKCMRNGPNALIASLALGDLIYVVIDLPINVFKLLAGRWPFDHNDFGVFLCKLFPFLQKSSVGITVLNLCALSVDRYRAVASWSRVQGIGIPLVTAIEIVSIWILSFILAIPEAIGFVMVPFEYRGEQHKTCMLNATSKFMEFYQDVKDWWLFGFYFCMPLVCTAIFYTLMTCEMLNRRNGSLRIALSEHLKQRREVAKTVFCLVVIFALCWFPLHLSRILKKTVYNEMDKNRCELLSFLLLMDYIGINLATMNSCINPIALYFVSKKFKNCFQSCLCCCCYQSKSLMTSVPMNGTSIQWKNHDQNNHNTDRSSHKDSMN", "assay": "Binding affinity to human ETA receptor at 10 uM by radioligand binding assay"}, "[27]": {"molecular_target": "Substance-K receptor (Homo sapiens) (UniProt P21452)", "assay": "Binding affinity to human NK2 receptor at 10 uM by radioligand binding assay"}, "[28]": {"molecular_target": "Substance-P receptor (Homo sapiens) (UniProt P25103)", "assay": "Binding affinity to human NK1 receptor at 10 uM by radioligand binding assay"}, "[29]": {"molecular_target": "Histamine H1 receptor (Homo sapiens) (UniProt P35367)", "assay": "Binding affinity to human histamine H1 receptor at 10 uM by radioligand binding assay"}, "Homo sapiens [30]": {"organism": "Homo sapiens", "assay": "Binding affinity to small conductance calcium-activated potassium channel (unknown origin) at 10 uM by radioligand binding assay"}, "[31]": {"molecular_target": "Catechol O-methyltransferase (Homo sapiens) (UniProt P21964)", "sequence (P21964 whole entry)": "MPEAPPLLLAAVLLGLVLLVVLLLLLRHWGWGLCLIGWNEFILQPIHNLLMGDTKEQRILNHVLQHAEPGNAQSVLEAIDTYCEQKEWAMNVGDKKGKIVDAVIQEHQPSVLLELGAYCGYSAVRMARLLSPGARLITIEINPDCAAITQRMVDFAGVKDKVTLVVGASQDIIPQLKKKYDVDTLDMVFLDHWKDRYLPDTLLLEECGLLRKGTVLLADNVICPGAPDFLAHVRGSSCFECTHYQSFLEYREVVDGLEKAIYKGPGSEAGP", "assay": "Binding affinity to COMT (unknown origin) at 10 uM"}, "[32]": {"molecular_target": "Histamine H3 receptor (Homo sapiens) (UniProt Q9Y5N1)", "assay": "Binding affinity to human histamine H3 receptor at 10 uM by radioligand binding assay"}, "[33]": {"molecular_target": "cGMP-dependent 3',5'-cyclic phosphodiesterase (Homo sapiens) (UniProt O00408)", "sequence (O00408 whole entry)": "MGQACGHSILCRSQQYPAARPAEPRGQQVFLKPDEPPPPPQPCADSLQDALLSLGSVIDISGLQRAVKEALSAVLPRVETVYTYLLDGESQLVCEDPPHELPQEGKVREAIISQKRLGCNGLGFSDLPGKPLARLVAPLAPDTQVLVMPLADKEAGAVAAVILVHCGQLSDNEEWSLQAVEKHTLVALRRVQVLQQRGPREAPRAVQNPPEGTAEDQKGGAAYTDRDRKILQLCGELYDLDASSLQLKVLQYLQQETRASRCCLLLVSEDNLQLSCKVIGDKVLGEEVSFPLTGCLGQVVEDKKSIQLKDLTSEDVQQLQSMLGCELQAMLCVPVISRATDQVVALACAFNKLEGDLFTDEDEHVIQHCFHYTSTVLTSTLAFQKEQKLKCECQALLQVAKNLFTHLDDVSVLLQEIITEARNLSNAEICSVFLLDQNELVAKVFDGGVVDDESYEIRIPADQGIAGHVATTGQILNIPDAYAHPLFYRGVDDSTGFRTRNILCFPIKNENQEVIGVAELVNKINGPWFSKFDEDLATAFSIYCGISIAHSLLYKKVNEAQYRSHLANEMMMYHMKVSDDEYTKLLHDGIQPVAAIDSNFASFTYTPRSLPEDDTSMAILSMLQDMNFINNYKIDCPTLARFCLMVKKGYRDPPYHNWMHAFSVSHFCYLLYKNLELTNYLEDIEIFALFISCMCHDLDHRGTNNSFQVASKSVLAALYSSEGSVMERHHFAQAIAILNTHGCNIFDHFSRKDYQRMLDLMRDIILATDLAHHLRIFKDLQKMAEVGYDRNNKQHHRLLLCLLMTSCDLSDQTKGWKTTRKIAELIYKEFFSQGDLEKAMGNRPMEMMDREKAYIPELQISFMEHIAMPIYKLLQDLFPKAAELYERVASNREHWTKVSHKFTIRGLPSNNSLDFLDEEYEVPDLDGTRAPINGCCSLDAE", "assay": "Binding affinity to human PDE2A1 at 10 uM"}, "[34]": {"molecular_target": "Adenosine receptor A1 (Homo sapiens) (UniProt P30542)", "assay": "Binding affinity to human adenosine A1 receptor at 10 uM by radioligand binding assay"}, "Homo sapiens [35]": {"organism": "Homo sapiens", "assay": "Binding affinity to GABA-gated chloride channel (unknown origin) at 10 uM by radioligand binding assay"}}}
{"smiles": "CCCCCCNC(=O)Oc1cccc(-c2ccc([C@H](C)C(=O)O)cc2F)c1", "values": [{"measurement": "Activity", "setting": "[1]", "result": -3.4, "unit": "%"}, {"measurement": "Activity", "setting": "[2]", "result": -3, "unit": "%"}, {"measurement": "Activity", "setting": "[3]", "result": 0.3, "unit": "%"}, {"measurement": "Activity", "setting": "Homo sapiens [4]", "result": 17.7, "unit": "%"}, {"measurement": "Activity", "setting": "[5]", "result": 0.4, "unit": "%"}, {"measurement": "Activity", "setting": "[6]", "result": -8.8, "unit": "%"}, {"measurement": "Activity", "setting": "Homo sapiens [7]", "result": -8.1, "unit": "%"}, {"measurement": "Activity", "setting": "[8]", "result": 17.9, "unit": "%"}, {"measurement": "Activity", "setting": "[9]", "result": -17.5, "unit": "%"}, {"measurement": "Activity", "setting": "[10]", "result": 99.2, "unit": "%"}, {"measurement": "Activity", "setting": "[11]", "result": 0.4, "unit": "%"}, {"measurement": "Activity", "setting": "[12]", "result": 3.2, "unit": "%"}, {"measurement": "Activity", "setting": "Homo sapiens [13]", "result": -2.7, "unit": "%"}, {"measurement": "Activity", "setting": "[14]", "result": 12.4, "unit": "%"}, {"measurement": "Activity", "setting": "[15]", "result": 0.8, "unit": "%"}, {"measurement": "Activity", "setting": "[16]", "result": 2.9, "unit": "%"}, {"measurement": "Activity", "setting": "[17]", "result": -5.3, "unit": "%"}, {"measurement": "Activity", "setting": "[18]", "result": 4.2, "unit": "%"}, {"measurement": "Activity", "setting": "[19]", "result": 0, "unit": "%"}, {"measurement": "Activity", "setting": "[20]", "result": -21.9, "unit": "%"}, {"measurement": "Activity", "setting": "[21]", "result": 0.9, "unit": "%"}, {"measurement": "Activity", "setting": "[22]", "result": -7.5, "unit": "%"}, {"measurement": "Activity", "setting": "[23]", "result": 0.9, "unit": "%"}, {"measurement": "Activity", "setting": "[24]", "result": -3.8, "unit": "%"}, {"measurement": "Activity", "setting": "[25]", "result": 0.5, "unit": "%"}, {"measurement": "Activity", "setting": "[26]", "result": -6.2, "unit": "%"}, {"measurement": "Activity", "setting": "[27]", "result": -1.6, "unit": "%"}, {"measurement": "Activity", "setting": "[28]", "result": -6.3, "unit": "%"}, {"measurement": "Activity", "setting": "[29]", "result": 1.8, "unit": "%"}, {"measurement": "Activity", "setting": "Homo sapiens [30]", "result": -10.6, "unit": "%"}, {"measurement": "Activity", "setting": "[31]", "result": -4.1, "unit": "%"}, {"measurement": "Activity", "setting": "[32]", "result": -9.3, "unit": "%"}, {"measurement": "Activity", "setting": "[33]", "result": -1.4, "unit": "%"}, {"measurement": "Activity", "setting": "[34]", "result": -8, "unit": "%"}, {"measurement": "Activity", "setting": "Homo sapiens [35]", "result": 36, "unit": "%"}]}
